How the values were obtained:
[1] = tested on: MES-SA/Dx5 cells; experiment: MTT viability assay, MES-SA/Dx5; format: cell-based, human; conditions: for IC50: Homo sapiens, MES-SA/Dx5, Table S1, calculated as ligand equivalents, read-out: IC50 Dx5; for IC50 / SR: absence of TQ; for Effect of co-administration of CuCl2 on toxicity: MDR MES-SA/Dx5, increasing concentrations of CuCl2, MTT 72 h (Figure 2I-L); for Selective toxicity in the presence of 50 µM copper(II): MES-SA vs. MES-SA/Dx5, 50 µM copper(II); for MDR-selective toxicity with excess iron ions: MES-SA vs. MES-SA/Dx5, co-administered FeCl3; for Effect of co-incubation with iron(III) on cytotoxicity: MES-SA/Dx5, increasing concentrations of FeCl3, MTT 72 h (Figure 2A-D); for SR: Table S1, IC50 Pgp negative divided by Pgp positive cells; for SR_TQ: Table S1, presence of 1 µM TQ
Source text: (§1) MDCK II canine kidney cells, A431 epidermoid carcinoma cells, the human uterine sarcoma cell lines MES-SA and the doxorubicin selected MES-SA-Dx5 were obtained from ATCC (MDCK II: No. CRL-2936™, A431: No. CRL-1555™, MES-SA: No. CRL-1976™, MES-SA/Dx5: No. CRL-1977™). ABCB1 was expressed in A431 and MES-SA cells using lentiviral transduction. The human cervix carcinoma cell line KB-3-1 and the vinblastine selected KB-v1were kind gifts from Dr. Michael M. Gottesman, National Institutes of Health. The phenotype of the resistant cells was verified using cytotoxicity assays. MDCK-B1 and MDCK-MM were established by the Sleeping Beauty transposon-based gene delivery system. OVCAR-8 and NCI-ADRres cells (obtained from the Division of Cancer Treatment and Diagnosis (DCTD) Tumor Repository (National Cancer Institute, Frederick, MD, USA)) were cultivated in RPMI-1640 (Sigma Aldrich, Budapest, Hungary), and other cell lines were cultivated in Dulbecco’s Modified Eagle Medium (DMEM, Sigma Aldrich, Budapest, Hungary), supplemented with 10% fetal bovine serum, 5 mM glutamine, and 50 unit/mL penicillin and streptomycin (Life Technologies, Carlsbad, CA, USA). All cell lines were cultivated at 37 °C, 5% CO2.
(§2) MTT viability assays were performed as described earlier with minor modifications. Briefly, cells were seeded into 96-well tissue culture plates (Sarstedt, Newton, NC, USA/Orange, Braine-l’Alleud, Belgium) at a density of 5000 cells/well and allowed to attach overnight. Test compounds were added to achieve the required final concentration in a final volume of 100 µL per well. After an incubation period of 72 h, the supernatant was removed and fresh medium containing the MTT reagent (0.083 mg/mL) was added. Incubation with MTT at 37 °C was terminated after 1 h by removing the supernatant and lysing the cells with 100 µL DMSO per well. Viability of the cells was measured spectrophotometrically based on the absorbance values at 540 nm using either a Perkin Elmer Victor X3 or an EnSpire microplate reader. Data were background corrected by subtraction of the signal obtained from unstained cell lysates and normalized to untreated cells. Curves were fitted by Prism software (GraphPad Software Inc., San Diego, CA, USA) using the sigmoidal dose-response model (comparing variable and fixed slopes). […] Significance was calculated using unpaired t-tests; results are given as *: p ≤ 0.05, **: p ≤ 0.01, ***: p ≤ 0.001, ****: p ≤ 0.0001.

[2] = tested on: MDCK-MM cells; experiment: MTT viability assay, MDCK-MM (non-functional Pgp); format: cell-based, canine; conditions: for IC50: Canis lupus familiaris, 72 h, MTT 72 h; for SR MDCK-MM: IC50 MDCK vs. MDCK-MM
Source text: as §1, §2

[3] = parameters: method as in PMID 30460942; conditions: copper(II) complex of the ligand; cited from earlier work
[4] = Reduction of in situ formed copper(II) complexes by GSH, followed spectrophotometrically; format: physicochemical; conditions: 1:1 metal to ligand, 5 eq GSH (Figure 5B)
Source text: Disruption of cellular redox homeostasis can be responsible for the toxicity of an anticancer agent. […] In addition to their redox potentials, redox cycling of the complexed metal ions is also influenced by the kinetics of the reduction and re-oxidation reactions. Reduction of iron(III) and copper(II) complexes by the physiologically relevant reducing agents glutathione (GSH) and ascorbate was followed spectrophotometrically. Although GSH is a stronger reducing agent than ascorbate, ascorbate reacted considerably faster with the iron(III) complexes (Figure 5A), while reduction by GSH seemed to be kinetically hindered (not shown). […]
Figure 5 Reduction of the in situ formed iron(III) and copper(II) complexes from equimolar metal-to-ligand ratios with antioxidants was followed spectrophotometrically by the decrease in the respective absorbance maxima. (A) Time-dependent decrease of the absorbance values in equimolar 1:1 metal to ligand mixtures of FeCl3 with Q-1 at 356 nm (black), Q-2 at 348 nm (blue), Q-3 at 334 nm (green) and Q-4 at 328 nm upon addition of 2.5 equivalents of ascorbate. (B) Time-dependent decrease of the absorbance values in equimolar 1:1 metal to ligand mixtures of CuCl2 with Q-1 at 370 nm (black), Q-2 at 372 nm (blue), Q-3 at 368 nm (green) and Q-4 at 430 nm upon addition of 5 eq GSH. […]

[5] = IC50 MES-SA vs. MES-SA/Dx5, absence of Tariquidar
[6] = IC50 MES-SA vs. MES-SA/Dx5, presence of 1 µM Tariquidar (brackets)
[7] = Table 2, value in brackets (Tariquidar as in Table 1)
[8] = Table 2, value outside brackets
[9] = presence of 1 µM Tariquidar (values in brackets)
[10] = presence of 1 µM Tariquidar (brackets)

SMILES | IC50 [1] [µM] | SR MES-SA/Dx5 [1, 5] | SR MES-SA/Dx5 [1, 6] | Effect of co-administration of CuCl2 on toxicity [1] | Selective toxicity in the presence of 50 µM copper(II) [1] | MDR-selective toxicity with excess iron ions [1] | Effect of co-incubation with iron(III) on cytotoxicity [1] | SR MES-SA/Dx5 (Table 2) [1, 7] | SR MES-SA/Dx5 (Table 2) [1, 8] | SR [1] | SR_TQ [1] | IC50 ([2]; absence of Tariquidar) [µM] | IC50 [2, 9] [µM] | SR MDCK-MM ([2]; absence of Tariquidar) | SR MDCK-MM [2, 10] | pKa CuLH (logβCuLH − logβCuL) [3] | Time until half of the initial copper(II) complex is reduced by GSH [4]
Oc1c(CN2CCCCC2)ccc2cccnc12 [Compound Q-3, 7-(piperidin-1-ylmethyl)quinolin-8-ol] | 0.86 ± 0.26 | 4.75 | 0.95 | not further sensitized | completely abrogated | significantly reduced | selectively protected MES-SA/Dx5 cells | 0.95 | 4.75 | 4.75 | 0.95 | 6.67 ± 2 | 8.45 | 1.14 | 1.20 | – | –
Oc1c(CNCc2ccccc2F)cc(Cl)c2cccnc12 [Compound Q-4, 5-chloro-7-((2-fluorobenzylamino)methyl)quinolin-8-ol] | 0.2 ± 0.06 | 13.68 | 0.68 | not further sensitized | completely abrogated | significantly reduced | selectively protected MES-SA/Dx5 cells | 0.68 | 13.68 | 13.68 | 0.68 | 5.23 ± 2.11 | 6.27 | 0.87 | 0.94 | 5.91 | not yet fully reached after two hours
Oc1cccc2cccnc12 [Compound Q-1, 8-Hydroxyquinoline] | 2.46 ± 0.69 | 1.70 | 1.73 | increased the toxicity | – | – | did not influence the cytotoxicity | 1.73 | 1.70 | 1.70 | 1.73 | 3.34 ± 0.6 | 3.59 | 0.97 | 0.86 | – | –
Oc1c(CN2CCOCC2)ccc2cccnc12 [Compound Q-2, 7-(morpho-lino-methyl)quinolin-8-ol] | 3.27 ± 0.39 | 2.13 | 0.85 | increased the toxicity | – | – | selectively protected MES-SA/Dx5 cells | 0.85 | 2.13 | 2.13 | 0.85 | 9.74 ± 4.04 | 9.01 | 0.82 | 1.23 | – | within the first minute
